From patent US4600537A, “Preparation of (±) 4-demethoxy-6 (and-11-)-deoxydaunomycinone” (Farmitalia Carlo Erba S.p.A., priority 1981, dated 1986) come the findings set out here.

One series deals with P388 ascitic leukemia. The series is described as follows: Effect against P388 leukemia in mice. Details: LTS (long term survivors) / Toxic deaths (evaluated on the basis of zooptic findings): dose or concentration left out as unconfirmed. The conditions noted are these: for antitumor activity (in words): P388 ascitic leukemia in mice. How it is done:
The activity of the compounds 4-demethoxy-4'-epi-11-deoxydaunorubicin and 4-demethoxy-deoxy-daunorubicin was also tested against P388 ascitic leukemia in mice.

For another series, the system named is Hela cells. The series is described as follows: Effect on Hela cells cloning activity (cytotoxic activity in vitro). The class given is cell-based. Particulars: treatment for 24 hours; for IC50: read-out: Effect on Hela cells cloning activity, ID50; for Effect on Hela cells cloning activity, %: 1440 min; for activity at 0.1 µg/mL: dose 100 ng/ml. How it is done:
The biological activity of the following compound was tested against Hela cells in vitro: […]

[1] abbreviates: Homo sapiens, HeLa, 24 h, dose 6.2 ng/ml.
Where [2] appears, read: Homo sapiens, HeLa, 24 h, dose 25 ng/ml.

Converted amounts (≈) assume the structure as drawn. “And” between values parts separate entries of the source, which are not always exact repeats. Equal entries are not always repeated.

Take 4-demethoxy-deoxy-daunorubicin: the “antitumor activity (in words)” value with P388 ascitic leukemia was “exert antitumor activity”. Moreover, the “LTS (long term survivors)” value in the series with P388 ascitic leukemia (dose 4.4, ip on day 1) is 0/10; in the series with P388 ascitic leukemia (dose 6.6, ip on day 1) it was 0/10; in the series on P388 ascitic leukemia (dose 10, ip on day 1) it was 0/10. Besides, the “Toxic deaths (evaluated on the basis of zooptic findings)” value (shortened to “Toxic deaths”) in the series with P388 ascitic leukemia (dose 4.4, ip on day 1) was 0/10; with P388 ascitic leukemia (dose 6.6, ip on day 1), 7/10; with P388 ascitic leukemia (dose 10, ip on day 1), 8/10.
As to `CC(=O)[C@]1(O)Cc2cc3c(c(O)c2[C@@H](O[C@H]2C[C@H](N)[C@@H](O)[C@H](C)O2)C1)C(=O)c1ccccc1C3=O` [4-demethoxy-4'-epi-11-deoxydaunorubicin], the “antitumor activity (in words)” value with P388 ascitic leukemia is “exert antitumor activity”. Besides, the “LTS (long term survivors)” value was 0/10 in the series on P388 ascitic leukemia (dose 6.6, ip on day 1); 0/10 in the series with P388 ascitic leukemia (dose 10, ip on day 1); 0/10 with P388 ascitic leukemia (dose 15, ip on day 1). Also, the “Toxic deaths” value was 0/10 with P388 ascitic leukemia (dose 6.6, ip on day 1); 0/10 with P388 ascitic leukemia (dose 10, ip on day 1); 0/10 in the series with P388 ascitic leukemia (dose 15, ip on day 1). In addition, the IC50 with Hela cells (Homo sapiens, HeLa) turned out to be 0.04 µg/mL (≈ 0.0831 µM). The “Effect on Hela cells cloning activity, %” value is 78% and 109% in the series on Hela cells (dose 1.5 ng/ml); 60% and 105% in the series on Hela cells (dose 6.2 ng/ml); 56% and 82% with Hela cells (dose 25 ng/ml).
Consider `CC(=O)[C@]1(O)Cc2c(cc3c(c2O)C(=O)c2ccccc2C3=O)[C@@H](O[C@H]2C[C@H](N)[C@H](O)[C@H](C)O2)C1` [4-demethoxy-6-deoxydaunorubicin], for which the activity at 0.005 µg/mL with Hela cells (Homo sapiens, HeLa, 24 h, dose 5 ng/ml) was 119%. The activity at 0.01 µg/mL in the series with Hela cells (Homo sapiens, HeLa, 24 h, dose 10 ng/ml) stood at 73%. Further, the activity at 0.05 µg/mL with Hela cells (Homo sapiens, HeLa, 24 h, dose 50 ng/ml) came out at 4%. For the same compound, the activity at 0.25 µg/mL with Hela cells (Homo sapiens, HeLa, 24 h, dose 250 ng/ml) was determined as 0%. For the same compound, the IC50 in the series with Hela cells (Homo sapiens, HeLa) is 0.017 µg/mL (≈ 0.0353 µM).
For the compound `C[C@@H]1O[C@@H](O[C@H]2C[C@](O)(C(=O)CO)Cc3cc4c(c(O)c32)C(=O)c2ccccc2C4=O)C[C@H](N)[C@H]1O` [4-demethoxy-11-deoxy-4'-epidoxorubicin], the activity at 0.0062 µg/mL in the series on Hela cells (setting [1]) was found to be 100%. In the series on Hela cells (setting [2]), the activity at 0.025 µg/mL worked out at 33%. Besides, in the series with Hela cells (Homo sapiens, HeLa, 24 h), the activity at 0.1 µg/mL worked out at 1%. Moreover, the activity at 0.4 µg/mL in the series with Hela cells (Homo sapiens, HeLa, 24 h, dose 400 ng/ml) was 0%. Besides, the IC50 in the series with Hela cells (Homo sapiens, HeLa) turned out to be 0.02 µg/mL (≈ 0.0402 µM).
As to `CC(=O)[C@]1(O)Cc2cc3c(c(O)c2[C@@H](O[C@H]2C[C@H](N)[C@H](O)[C@H](C)O2)C1)C(=O)c1ccccc1C3=O` [4-demethoxy-11-deoxydaunorubicin], in the series with Hela cells (setting [1]), the activity at 0.0062 µg/mL amounted to 112%. Also, the activity at 0.025 µg/mL with Hela cells (setting [2]) was determined as 50%. The activity at 0.1 µg/mL with Hela cells (Homo sapiens, HeLa, 24 h) worked out at 0%. In addition, the IC50 with Hela cells (Homo sapiens, HeLa) amounted to 0.025 µg/mL (≈ 0.0519 µM).
For the compound `COc1cccc2c1C(=O)c1c(O)c3c(c(O)c1C2=O)C[C@@](O)(C(C)=O)C[C@@H]3O[C@H]1C[C@H](N)[C@H](O)[C@H](C)O1` [Daunorubicin, reference compound], the “LTS (long term survivors)” value in the series on P388 ascitic leukemia (dose 2.9, ip on day 1) is 0/10; in the series on P388 ascitic leukemia (dose 4.4, ip on day 1) it was 0/10; in the series on P388 ascitic leukemia (dose 6.6, ip on day 1) it was 0/10. Also, the “Toxic deaths” value in the series with P388 ascitic leukemia (dose 2.9, ip on day 1) is given as 0/10; in the series on P388 ascitic leukemia (dose 4.4, ip on day 1), 0/10; in the series with P388 ascitic leukemia (dose 6.6, ip on day 1), 3/10. For the same compound, the activity at 0.0031 µg/mL with Hela cells (Homo sapiens, HeLa, 24 h, dose 3.1 ng/ml) came to 104%. Moreover, the activity at 0.0125 µg/mL in the series with Hela cells (Homo sapiens, HeLa, 24 h, dose 12.5 ng/ml) worked out at 65%. Also, in the series on Hela cells (Homo sapiens, HeLa), the IC50 amounted to 0.015 µg/mL (≈ 0.0284 µM). Besides, the “Effect on Hela cells cloning activity, %” value in the series with Hela cells (dose 3.1 ng/ml) was 115%; in the series with Hela cells (dose 6.2 ng/ml), 86% and 150% and 93% and 101%; with Hela cells (dose 12.5 ng/ml), 83% and 80% and 77% and 79%.
